Test results from patent publication US10106542B2, “Substituted 6,7-dihydropyrazolo[1,5-a]pyrazines as negative allosteric modulators of mGluR2 receptors” (Janssen Pharmaceutica NV, priority 2013, dated 2018).

Molecular target: T1, human mGlu2 receptor (Homo sapiens, UniProt Q14416)
T1 construct: expressed in transfected cells; host or cells: CHO cells (membrane preparation)
Assay: [35S]GTPγS binding assay (mGluR2 negative allosteric modulation)
Type: biochemical
Settings: for IC50: membranes from CHO cells transfected with human mGlu2 receptor, glutamate 60 μM, pIC50 = −log IC50 (M), read-out: GTPγS - hmGluR2 anGT pIC50 (converted); for Emax: relative maximal effect: maximal % inhibition relative to the control glutamate response, read-out: GTPγS - hmGluR2 anGT Emax
Method: 1) [^35S]GTPγS binding assay
The [^35S]GTPγS binding assay is a functional membrane-based assay used to study G-protein coupled receptor (GPCR) function whereby incorporation of a non-hydrolysable form of GTP, [^35S]GTPγS (guanosine 5′-triphosphate, labelled with […] ^35S), is measured. The G-protein a subunit catalyzes the exchange of guanosine 5′-diphosphate (GDP) by guanosine triphosphate (GTP) and on activation of the GPCR by an agonist, [^35S]GTPγS, becomes incorporated and cannot be cleaved to continue the exchange cycle (Harper (1998) Current Protocols in Pharmacology 2.6.1-10, John Wiley & Sons, Inc.). […] Here we describe the use of the [^35S]GTPγS binding assay using membranes from cells transfected with the human mGlu2 receptor and adapted from Schaffhauser et al. (Molecular Pharmacology, 2003, […]) for the detection of the negative allosteric modulation (NAM) properties of the compounds of this invention.
CHO-cells were cultured to pre-confluence and stimulated with 5 mM butyrate for 24 h. Cells were then collected by scraping in PBS and cell suspension was centrifuged (10 min at 4000 RPM in benchtop centrifuge). Supernatant was discarded and pellet gently resuspended in 50 mM Tris-HCl, pH 7.4 by mixing with an Ultra Turrax homogenizer. The suspension was centrifuged at 12,400 RPM (Sorvall F14S-6x250Y) for 10 minutes and the supernatant discarded. The pellet was homogenized in 5 mM Tris-HCl, pH 7.4 using an Ultra Turrax homogenizer and centrifuged again (13,000 RPM, 20 min, 4° C.). The final pellet was resuspended in 50 mM Tris-HCl, pH 7.4 and stored at −80° C. in appropriate aliquots before use. Protein concentration was determined by the Bradford method (Bio-Rad, USA) with bovine serum albumin as standard.
Measurement of mGluR2 negative allosteric modulatory activity of test compounds was performed as follows. Test compounds and glutamate were diluted in assay buffer containing 10 mM HEPES acid, 10 mM HEPES salt, pH 7.4, 100 mM NaCl, 3 mM MgCl2 and 10 μM GDP. Human mGlu2 receptor-containing membranes were thawed on ice and diluted in assay buffer supplemented with 18 μg/ml saponin. […] After addition of [^35S]GTPγS (f.c. 0.1 nM), assay mixtures were shaken briefly and further incubated to allow [^35S]GTPγS incorporation on activation (30 minutes, 30° C.). Final assay mixtures contained 7 μg of membrane protein in 10 mM HEPES acid, 10 mM HEPES salt, pH 7.4, 100 mM NaCl, 3 mM MgCl2, 10 μM GDP and 10 μg/ml saponin. Total reaction volume was 200 μl. Reactions were terminated by rapid filtration through Unifilter-96 GF/B plates (Perkin Elmer, Massachusetts, USA) using a 96-well filtermate universal harvester. Filters were washed 6 times with ice-cold 10 mM NaH2PO4/10 mM Na2HPO4, pH 7.4. Filters were then air-dried, and 30 μl of liquid scintillation cocktail (Microscint-O) was added to each well. Membrane-bound radioactivity was counted in a Topcount.
The concentration-response curves of representative compounds of the present invention were generated using the Lexis software interface (developed at J&J). Data were calculated as % of the control glutamate response, defined as the response that is generated upon addition of an EC80-equivalent concentration of glutamate.

T1 sequence (Q14416 19-872): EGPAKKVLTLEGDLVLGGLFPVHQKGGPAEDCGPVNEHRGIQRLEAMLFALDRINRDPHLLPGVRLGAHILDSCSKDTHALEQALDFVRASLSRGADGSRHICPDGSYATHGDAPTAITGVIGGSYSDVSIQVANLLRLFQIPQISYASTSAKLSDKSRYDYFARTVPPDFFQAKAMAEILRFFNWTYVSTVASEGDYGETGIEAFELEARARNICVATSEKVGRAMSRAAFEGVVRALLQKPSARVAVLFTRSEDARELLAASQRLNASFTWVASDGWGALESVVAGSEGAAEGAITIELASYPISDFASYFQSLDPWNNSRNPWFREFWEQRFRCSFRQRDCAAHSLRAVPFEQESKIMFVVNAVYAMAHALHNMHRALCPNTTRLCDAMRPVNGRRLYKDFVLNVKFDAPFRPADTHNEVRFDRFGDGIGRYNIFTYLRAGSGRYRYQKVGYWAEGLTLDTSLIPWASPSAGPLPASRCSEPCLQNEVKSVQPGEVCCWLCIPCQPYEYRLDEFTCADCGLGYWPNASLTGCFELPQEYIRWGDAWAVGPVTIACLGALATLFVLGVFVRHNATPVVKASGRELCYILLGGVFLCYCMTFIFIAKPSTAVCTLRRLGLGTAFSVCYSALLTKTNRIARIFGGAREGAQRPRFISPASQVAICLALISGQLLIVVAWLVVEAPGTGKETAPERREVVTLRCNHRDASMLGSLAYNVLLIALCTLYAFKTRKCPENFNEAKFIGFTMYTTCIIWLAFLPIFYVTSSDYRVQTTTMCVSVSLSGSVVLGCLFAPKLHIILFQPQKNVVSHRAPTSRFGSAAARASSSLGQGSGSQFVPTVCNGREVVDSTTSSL

Structure (SMILES) | IC50 [M] | Emax [%]
Cc1cc(-c2cnn3c2C(=O)N(c2ccc(C(C)O)cc2)C[C@@H]3C)ccn1 (stereo partly drawn) [compound 149, (7S)-5-[4-(1-Hydroxyethyl)phenyl]-7-methyl-3-(2-methyl-4-pyridyl)-6,7-dihydropyrazolo[1,5-a]pyrazin-4-one] | > 5.01e-05 | 49
Cc1cc(-c2cnn3c2C(=O)N(c2ccc(C(F)(F)F)c(OC(C)C)c2)C[C@@H]3C)ccn1 [compound 154] | 2e-08 | 104
Cc1cc(-c2cnn3c2C(=O)N(c2ccc(C4CC4)cc2)C[C@@H]3C)ccn1 [compound 156, (7S)-5-(4-Cyclopropylphenyl)-7-methyl-3-(2-methyl-4-pyridyl)-6,7-dihydropyrazolo[1,5-a]pyrazin-4-one] | 5.62e-08 | 106
COc1cc(Cl)ccc1N1C[C@H](C)n2ncc(-c3ccnc(C)c3)c2C1=O [compound 161] | 1.55e-05 | 76
Cc1cc(-c2cnn3c2C(=O)N(c2ccc(Cl)c(OC(F)F)c2)C[C@@H]3C)ccn1 [compound 163] | 1.1e-08 | 103
Cc1cc(-c2cnn3c2C(=O)N(c2ccc(OC(C)C(F)(F)F)cc2)C[C@@H]3C)ccn1 (stereo partly drawn) [compound 165] | 1.95e-08 | 102
Cc1cc(-c2cnn3c2C(=O)N(c2ccc(Cl)c(Cl)c2)C[C@@H]3C)cc[n+]1[O-] [compound 170, (7S)-5-(3,4-dichlorophenyl)-7-methyl-3-(2-methyl-1-oxido-pyridin-1-ium-4-yl)-6,7-dihydropyrazolo[1,5-a]pyrazin-4-one] | 7.24e-08 | 107
C[C@H]1CN(c2ccc(C(F)(F)F)cc2)C(=O)c2c(-c3ccnc(C4CC4)c3)cnn21 [compound 173] | 4.37e-09 | 106
C[C@H]1CN(c2ccc(C(F)(F)F)c(Cl)c2)C(=O)c2c(-c3ccnc(OCCF)c3)cnn21 [compound 177] | 9.33e-09 | 105
CNc1cc(-c2cnn3c2C(=O)N(c2ccc(Cl)cc2)C[C@@H]3C)ccn1 [compound 178] | 2.4e-08 | 107
CNc1cc(-c2cnn3c2C(=O)N(c2ccc(C(F)(F)F)c(C#N)c2)C[C@@H]3C)ccn1 [compound 179] | 3.63e-08 | 103
Cc1cc(-c2cnn3c2C(=O)N(c2ccc(C(F)(F)F)cc2)CC3C(F)F)ccn1 (stereo not drawn) [compound 181, 7-(Difluoromethyl)-3-(2-methyl-4-pyridyl)-5-[4-(trifluoromethyl)phenyl]-6,7-dihydropyrazolo[1,5-a]pyrazin-4-one] | 4.17e-07 | 103
Cc1cc(-c2cnn3c2C(=O)N(c2ccc(Cl)cn2)C[C@@H]3C)ccn1 [compound 187] | 3.24e-07 | 108
C[C@H]1CN(c2ccc(C(F)(F)F)cn2)C(=O)c2c(-c3ccncc3)cnn21 [compound 190] | 2.09e-07 | 105
Cc1cc(-c2cnn3c2C(=O)N(c2ccc(C(F)(F)F)c(C)n2)C[C@@H]3C)ccn1 [compound 192, (7S)-7-Methyl-3-(2-methyl-4-pyridyl)-5-[6-methyl-5-(trifluoromethyl)-2-pyridyl]-6,7-dihydropyrazolo[1,5-a]pyrazin-4-one] | 7.41e-09 | 106
Cc1cc(-c2cnn3c2C(=O)N(c2cc(C)c(C(F)(F)F)cn2)C[C@@H]3C)ccn1 [compound 193] | 1.91e-08 | 103
Cc1cc(-c2cnn3c2C(=O)N(c2ccc(C(F)(F)F)cn2)C[C@@H]3C)cc(C)n1 [compound 194] | 1.38e-07 | 107
CCOc1ccc(Cl)c(N2C[C@H](C)n3ncc(-c4ccnc(C)c4)c3C2=O)n1 [compound 195] | 4.07e-06 | 92
Cc1cc(-c2cnn3c2C(=O)N(c2ccc(Cl)c(C)n2)C[C@@H]3C)ccn1 [compound 196] | 5.01e-08 | 107
Cc1cc(-c2cnn3c2C(=O)N(c2cc(Cl)c(C)cn2)C[C@@H]3C)ccn1 [compound 198] | 9.12e-08 | 104
CCOc1ccc(C(F)(F)F)c(N2C[C@H](C)n3ncc(-c4ccnc(C)c4)c3C2=O)n1 [compound 199] | 2.57e-05 | 67

Structure (SMILES) | IC50 [M] | Emax [%]
Cc1cc(-c2cnn3c2C(=O)N(c2ccc(Cl)c(Cl)n2)C[C@@H]3C)ccn1 [compound 202] | 1.02e-08 | 103
Cc1cc(-c2cnn3c2C(=O)N(c2cc(Cl)c(Cl)cn2)C[C@@H]3C)ccn1 [compound 203] | 6.76e-09 | 105
COc1nc(N2C[C@H](C)n3ncc(-c4ccnc(C)c4)c3C2=O)ccc1Cl [compound 206] | 1.78e-08 | 111
COc1nc(N2C[C@H](C)n3ncc(-c4ccnc(N5CCC5)c4)c3C2=O)ccc1C(F)(F)F [compound 209] | 6.46e-09 | 104
Cc1cc(-c2cnn3c2C(=O)N(c2ccc(C(F)(F)F)cn2)CC3)ccn1 [compound 211] | 3.72e-06 | 92
Cc1cc(-c2cnn3c2C(=O)N(c2ccc(C(F)(F)F)cc2)CC3C(F)(F)F)ccn1 (stereo not drawn) [compound 238, 3-(2-Methyl-4-pyridyl)-7-(trifluoromethyl)-5-[4-(trifluoromethyl)phenyl]-6,7-dihydropyrazolo[1,5-a]pyrazin-4-one] | 2.14e-06 | 103
CNc1cc(-c2cnn3c2C(=O)N(c2ccc(C(F)(F)F)cc2)C[C@@H]3C)cc(C)n1 [compound 241] | 1.82e-08 | 109
CNc1cc(-c2cnn3c2C(=O)N(c2ccc(C(F)(F)F)cc2)C[C@@H]3C)cc(F)n1 [compound 243] | 2.24e-08 | 116
Cc1cc(-c2cnn3c2C(=O)N(c2ccc(Cl)cc2Cl)CC3)ccn1 [compound 244] | 8.71e-06 | 80
C[C@H]1CN(c2ccc(C(F)(F)F)c(CF)c2)C(=O)c2c(-c3ccnc(N(C)C)c3)cnn21 [compound 246] | 4.17e-09 | 116
C[C@H]1CN(c2ccc(C(F)(F)F)cc2)C(=O)c2c(-c3ccnc(F)c3)cnn21 [compound 247] | 3.02e-08 | 109
C[C@H]1CN(c2ccc(C(F)(F)F)c(OCCF)c2)C(=O)c2c(-c3ccnc(N(C)C)c3)cnn21 [compound 249] | 8.32e-09 | 109
COc1nc(N2C[C@H](C)n3ncc(-c4ccnc(N(C)C)c4)c3C2=O)ccc1C(F)(F)F [compound 250] | 3.98e-09 | 120
CCN(C)c1cc(-c2cnn3c2C(=O)N(c2ccc(C(F)(F)F)cc2)C[C@@H]3C)ccn1 [compound 253] | 6.17e-09 | 111
CCN(C)c1cc(-c2cnn3c2C(=O)N(c2ccc(C(F)(F)F)c(Cl)c2)C[C@@H]3C)ccn1 [compound 254] | 1.7e-09 | 109
CCCNc1cc(-c2cnn3c2C(=O)N(c2ccc(C(F)(F)F)c(C)c2)C[C@@H]3C)ccn1 [compound 258] | 6.03e-09 | 108
CCCNc1cc(-c2cnn3c2C(=O)N(c2ccc(C(F)(F)F)cc2)C[C@@H]3C)ccn1 [compound 259] | 1.78e-08 | 105
Cc1cc(N2C[C@H](C)n3ncc(-c4ccnc(N5CCC5)c4)c3C2=O)ccc1C(F)(F)F [compound 260] | 3.55e-09 | 105
CC(C)Nc1cc(-c2cnn3c2C(=O)N(c2ccc(Cl)c(Cl)c2)C[C@@H]3C)ccn1 [compound 261] | 1.1e-08 | 107
CC(C)Nc1cc(-c2cnn3c2C(=O)N(c2ccc(C(F)(F)F)c(Cl)c2)C[C@@H]3C)ccn1 [compound 262] | 6.17e-09 | 109
CCCNc1cc(-c2cnn3c2C(=O)N(c2ccc(Cl)c(Cl)c2)C[C@@H]3C)ccn1 [compound 263] | 4.68e-09 | 109
